Structures can show the parent of a compound that is named as a salt.

This note sets out measurements from ChEMBL document CHEMBL6127071, “Albusamides A-G: Hydroxylated Fatty Amine Derivatives from the Deep-Sea-Derived Actinomycete Streptomyces albus 228DD-066 and Their Cytotoxic Activity” (2024).

Common to all, as to assay type: functional
One assay relates to WSUDLCL2. Briefly: Growth inhibition of human WSUDLCL2 cells assessed as reduction in cell viability measured after 48 hrs by SRB method.
In another assay the test system is NALM-6. Briefly: Growth inhibition of human NALM-6 cells assessed as reduction in cell viability measured after 48 hrs by SRB method. (In general: The SRB assay estimates cell density from bound dye.)
The subject of another assay is U-266. Briefly: Growth inhibition of human U-266 cells assessed as reduction in cell viability measured after 48 hrs by SRB method.
The next assay relates to PC-3. Description: Growth inhibition of human PC-3 cells assessed as reduction in cell viability measured after 48 hrs by SRB method.
The next assay has as its system NUGC-3. Briefly: Growth inhibition of human NUGC-3 cells assessed as reduction in cell viability measured after 48 hrs by SRB method.
The next assay deals with MDA-MB-231. Description: Growth inhibition of human MDA-MB-231 cells assessed as reduction in cell viability measured after 48 hrs by SRB method.
The next assay relates to K562. Briefly: Growth inhibition of human K562 cells assessed as reduction in cell viability measured after 48 hrs by SRB method.
The nature of assay [1]: Growth inhibition of human MRC9 cells assessed as reduction in cell viability measured after 48 hrs by SRB method.
Assay [2] is described as follows: Growth inhibition of human RPMI-1788 cells assessed as reduction in cell viability measured after 48 hrs by SRB method.
For the next assay, the system named is HL-60. Briefly: Growth inhibition of human HL-60 cells assessed as reduction in cell viability measured after 48 hrs by SRB method.
A further assay relates to RPMI 8402. Description: Growth inhibition of human RPMI 8402 cells assessed as reduction in cell viability measured after 48 hrs by SRB method.
The next assay deals with HCT-15. Briefly: Growth inhibition of human HCT-15 cells assessed as reduction in cell viability measured after 48 hrs by SRB method.
Another assay concerns ACHN. Briefly: Growth inhibition of human ACHN cells assessed as reduction in cell viability measured after 48 hrs by SRB method.
A further assay deals with Raji. Briefly: Growth inhibition of human Raji cells assessed as reduction in cell viability measured after 48 hrs by SRB method.
A further assay deals with NCI-H23. Description: Growth inhibition of human NCI-H23 cells assessed as reduction in cell viability measured after 48 hrs by SRB method.

The GI50 is the concentration that inhibits growth by half. As for `CC[C@@H](O)CCCCCCCCCNC(C)=O`, the 50% growth inhibitory concentration (GI50) is 14 µM in the assay on WSUDLCL2; greater than 30 µM in the assay with NALM-6; greater than 30 µM in the assay with U-266; 5.1 µM in the assay with PC-3; 3.9 µM in the assay on NUGC-3; 4.7 µM in the assay with MDA-MB-231. Further, the concentration for 50% growth inhibition (GI50) with K562 was greater than 30 µM; in assay [1] it was 5.3 µM; in assay [2], 4.7 µM; in the assay with HL-60, greater than 30 µM; in the assay on RPMI 8402, greater than 30 µM; with HCT-15, 4.6 µM. The GI50 in the assay on ACHN is 5.7 µM; in the assay on Raji, greater than 30 µM; with NCI-H23, 5.3 µM.
For `CC(=O)NCCCCCCCCC[C@@H](O)[C@H](C)O`, the GI50 in the assay with WSUDLCL2 was greater than 30 µM; with NALM-6 it was greater than 30 µM; in the assay with U-266 it was greater than 30 µM; in the assay on PC-3 it was 7.3 µM; in the assay on NUGC-3, 6.6 µM; in the assay on MDA-MB-231, 7.5 µM. Besides, the GI50 in the assay with K562 was greater than 30 µM; in [1] it was 6.7 µM; in [2], 17 µM; in the assay with HL-60, greater than 30 µM; in the assay on RPMI 8402, greater than 30 µM; in the assay on HCT-15, 5.8 µM. In addition, the GI50 in the assay with ACHN is 6.4 µM; in the assay on Raji, greater than 30 µM; in the assay on NCI-H23 it was 7.2 µM.
On to `CC(=O)NCCCCCCCCC[C@@H](O)[C@@H](C)O`, for which the concentration for 50% growth inhibition (GI50) is 8.3 µM in the assay with WSUDLCL2; greater than 30 µM in the assay on NALM-6; greater than 30 µM in the assay with U-266; 1.7 µM in the assay with PC-3; 1.4 µM in the assay on NUGC-3; 2 µM with MDA-MB-231. In addition, the GI50 in the assay with K562 was greater than 30 µM; in [1], 2 µM; in assay [2], 3.1 µM; with HL-60, greater than 30 µM; with RPMI 8402, greater than 30 µM; in the assay with HCT-15, 2.1 µM. For the same compound, the GI50 in the assay on ACHN is 1.6 µM; in the assay on Raji, greater than 30 µM; in the assay on NCI-H23, 1.9 µM.
For the compound `CC(=O)NCCCCCCCCCO`, the GI50 in the assay with WSUDLCL2 was 1.3 µM; with NALM-6, 18 µM; in the assay with U-266 it was greater than 30 µM; in the assay on PC-3 it was 2 µM; in the assay with NUGC-3 it was 1.5 µM; in the assay with MDA-MB-231 it was 2.6 µM. The GI50 is 19 µM in the assay on K562; 2.8 µM in assay [1]; 0.5 µM in assay [2]; 15 µM with HL-60; 4.4 µM with RPMI 8402; 2.6 µM in the assay with HCT-15. For the same compound, the GI50 was 2.3 µM in the assay with ACHN, greater than 30 µM in the assay on Raji and 2.1 µM with NCI-H23.
`CC(=O)NCCCCCCCCCC(=O)CCO`: the GI50 with WSUDLCL2 is greater than 30 µM; in the assay on NALM-6, greater than 30 µM; in the assay with U-266, greater than 30 µM; with PC-3, 19 µM; with NUGC-3, 17 µM; with MDA-MB-231, 18 µM. For the same compound, the 50% growth inhibitory concentration (GI50) with K562 was greater than 30 µM; in [1] it was 20 µM; in assay [2], 28 µM; with HL-60 it was greater than 30 µM; in the assay with RPMI 8402, greater than 30 µM; in the assay on HCT-15, 15 µM. The concentration for 50% growth inhibition (GI50) is 16 µM with ACHN, greater than 30 µM in the assay on Raji and 18 µM in the assay on NCI-H23.
As to `CC(=O)CCCCCCCCCCNC(C)=O`, the GI50 with WSUDLCL2, with NALM-6, in the assay on U-266, in the assay on PC-3, with NUGC-3 and in the assay with MDA-MB-231 was greater than 30 µM in each case. Further, the 50% growth inhibitory concentration (GI50) (with K562; in assay [1]; in assay [2]; in the assay on HL-60; in the assay with RPMI 8402; in the assay with HCT-15) was greater than 30 µM throughout. Also, the GI50 with ACHN, with Raji and in the assay with NCI-H23 was greater than 30 µM in each case.
For `CC(=O)NCCCCCCCCC[C@@H](O)CCO`, the concentration for 50% growth inhibition (GI50) in the assay with WSUDLCL2 was 5.6 µM; in the assay on NALM-6, greater than 30 µM; with U-266 it was greater than 30 µM; with PC-3 it was 5.5 µM; with NUGC-3 it was 3 µM; in the assay on MDA-MB-231 it was 4.6 µM. Moreover, the GI50 in the assay with K562 is 28 µM; in [1], 4 µM; in assay [2], 2.9 µM; in the assay on HL-60, greater than 30 µM; in the assay with RPMI 8402, 25 µM; in the assay with HCT-15, 5.4 µM. The GI50 with ACHN is 5.8 µM; in the assay on Raji, greater than 30 µM; in the assay on NCI-H23, 4.6 µM.
Consider `CC(=O)NCCCCCCCCCC[C@H](O)CO`, for which the 50% growth inhibitory concentration (GI50) is 0.2 µM in the assay with WSUDLCL2; 1.5 µM in the assay with NALM-6; greater than 30 µM in the assay on U-266; 0.5 µM in the assay with PC-3; 0.4 µM with NUGC-3; 0.5 µM in the assay on MDA-MB-231. Further, the GI50 in the assay with K562 was 1.5 µM; in assay [1], 0.6 µM; in assay [2], 0.1 µM; with HL-60, 1.3 µM; in the assay with RPMI 8402 it was 0.6 µM; in the assay with HCT-15, 0.5 µM. Moreover, the figures for the concentration for 50% growth inhibition (GI50) in the assay on ACHN, in the assay with Raji and in the assay with NCI-H23 were 0.5 µM, 26 µM and 0.5 µM, respectively.
For `CC(=O)NCCCCCCCCCC[C@@H](C)O`, the GI50 in the assay on WSUDLCL2 is greater than 30 µM; in the assay with NALM-6, greater than 30 µM; in the assay on U-266 it was greater than 30 µM; with PC-3 it was 19 µM; in the assay with NUGC-3, 19 µM; in the assay with MDA-MB-231 it was 20 µM. For the same compound, the 50% growth inhibitory concentration (GI50) with K562 was greater than 30 µM; in assay [1], 19 µM; in assay [2], greater than 30 µM; in the assay with HL-60, greater than 30 µM; with RPMI 8402, greater than 30 µM; in the assay with HCT-15 it was 16 µM. In addition, the values for the 50% growth inhibitory concentration (GI50) in the assay on ACHN, in the assay on Raji and in the assay on NCI-H23 were 23 µM, greater than 30 µM and 22 µM, respectively.
Consider `CCC(=O)CCCCCCCCCNC(C)=O`, for which the concentration for 50% growth inhibition (GI50) with WSUDLCL2, in the assay on NALM-6, in the assay with U-266, in the assay with PC-3, in the assay on NUGC-3 and in the assay on MDA-MB-231 was greater than 30 µM throughout. Further, the 50% growth inhibitory concentration (GI50) (in the assay on K562; in [1]; in [2]; in the assay on HL-60; in the assay with RPMI 8402; in the assay on HCT-15) was greater than 30 µM in each case. For the same compound, the 50% growth inhibitory concentration (GI50) in the assay on ACHN is greater than 30 µM; in the assay with Raji, 19 µM; in the assay on NCI-H23 it was greater than 30 µM.
As for `CC(=O)CCCCCCCCNC(C)=O`, the GI50 with WSUDLCL2 was 0.8 µM; in the assay with NALM-6 it was 9.2 µM; with U-266, greater than 30 µM; with PC-3, 0.8 µM; in the assay on NUGC-3, 0.7 µM; with MDA-MB-231, 1.1 µM. In addition, the concentration for 50% growth inhibition (GI50) turned out to be 11 µM with K562; 1.1 µM in [1]; 0.4 µM in [2]; 7.9 µM in the assay with HL-60; 2.5 µM with RPMI 8402; 1.1 µM in the assay with HCT-15. The GI50 with ACHN stood at 1.1 µM; with Raji, 0.4 µM; in the assay with NCI-H23, 1 µM.
As to `COc1cccc2c1C(=O)c1c(O)c3c(c(O)c1C2=O)C[C@@](O)(C(=O)CO)C[C@@H]3O[C@H]1C[C@H](N)[C@H](O)[C@H](C)O1` [DOXORUBICIN HYDROCHLORIDE], the GI50 amounted to 0.004 µM in the assay with WSUDLCL2; 0.003 µM in the assay on NALM-6; 0.004 µM in the assay with U-266; 0.085 µM in the assay with PC-3; 0.093 µM in the assay on NUGC-3; 0.077 µM in the assay with MDA-MB-231. The concentration for 50% growth inhibition (GI50) is 0.007 µM with K562; 0.08 µM in [1]; 0.007 µM in assay [2]; 0.002 µM in the assay with HL-60; 0.01 µM in the assay with RPMI 8402; 0.087 µM in the assay with HCT-15. Moreover, the 50% growth inhibitory concentration (GI50) in the assay on ACHN turned out to be 0.081 µM; with Raji, 0.008 µM; in the assay with NCI-H23, 0.072 µM.
